Assay results reported in patent publication US6046218A, “Pyridine derivative and medicament containing the same as an effective ingredient” (SS Pharmaceutical Co., Ltd., priority 1996, dated 2000).
Where a name gives a salt, the structure may show the parent alone.

System: IL-5 production
Test: Test 3: inhibition of IL-5 production in human PBMC stimulated with ConA
Assay type: cell-based
Conditions: 10^-6 M, 10 μg/ml ConA, 48 hours, read-out: Inhibition rate of IL-5 production
Protocol: Test 3: Test on the inhibition of IL-5 production
The peripheral blood was collected from a normal volunteer and peripheral blood mononuclear cells (PBMC) of the human peripheral blood were separated therefrom by the specific gravity centrifugation method. They were suspended in an AIM-V medium and their cell count was adjusted. To individual wells of a 96-well incubation plate, 1×10^6 cells/ml of PBMC were poured, followed by the addition of a stimulator (10 μg/ml of ConA) and a medicament. The resulting mixture was incubated in 5% CO2 at 37° C. for 48 hours. After incubation, 50 μl of the supernatant were collected and subjected to measurement by a human IL-5 EIA kit (BIO SOURCE, INC.). The inhibition rate was calculated according to the following formula. [formula]

SMILES	inhibition at 1 µM [%]
CCCCCC(=O)/C=C/c1cc(OCCCCCC(=O)OCC)c(OCc2ccccc2)cn1 [Ex. 14, Ethyl 6-[5-benzyloxy-2-(3-oxo-1-octenyl)-4-pyridyloxy]hexanoate]	90.2
Oc1cnc(/C=C/C(O)c2ccccc2)cc1O (stereo not drawn) [Ex. 25, 4,5-Dihydroxy-2-(3-hydroxy-3-phenyl-1-propenyl)pyridine]	97.5
COC(=O)CCCCCOc1cc(/C=C/C(O)c2ccccc2)ncc1OC (stereo not drawn) [Ex. 26, Methyl 6-[2-(3-hydroxy-3-phenyl-1-propenyl)-5-methoxy-4-pyridyloxy]hexanoate]	83.7
CCOC(=O)CCCCCOc1cc(/C=C/C(O)c2ccccc2)ncc1OC (stereo not drawn) [Ex. 27, Ethyl 6-[2-(3-hydroxy-3-phenyl-1-propenyl)-5-methoxy-4-pyridyloxy]hexanoate]	89.6
COC(=O)CCCOc1cnc(/C=C/C(O)c2ccccc2)cc1OC (stereo not drawn) [Ex. 28, Methyl 4-[2-(3-hydroxy-3-phenyl-1-propenyl)-4-methoxy-5-pyridyloxy]butanoate]	72.1
COC(=O)CCCOc1cc(/C=C/C(O)c2ccccc2)ncc1OC (stereo not drawn) [Ex. 29, Methyl 4-[2-(3-hydroxy-3-phenyl-1-propenyl)-5-methoxy-4-pyridyloxy]butanoate]	99.8
COC(=O)CCCOc1cnc(/C=C/C(O)C2CCCC2)cc1OC (stereo not drawn) [Ex. 32, Methyl 4-[2-(3-cyclopentyl-3-hydroxy-1-propenyl)-4-methoxy-5-pyridyloxy]butanoate]	80.7
COc1cnc(/C=C/C(O)c2ccccc2)cc1OCCCC(=O)O (stereo not drawn) [Ex. 34, 4-[2-(3-Hydroxy-3-phenyl-1-propenyl)-5-methoxy-4-pyridyloxy]butanoic acid]	61
COc1cc(/C=C/C(O)C2CCCC2)ncc1OCCCC(=O)O (stereo not drawn) [Ex. 37, 4-[2-(3-Cyclopentyl-3-hydroxy-1-propenyl)-4-methoxy-5-pyridyloxy]butanoic acid hydrochloride]	72.6
CCCCCC(O)/C=C/c1cc(OCCCC(=O)O)c(O)cn1 (stereo not drawn) [Ex. 39, 4-[5-Hydroxy-2-(3-hydroxy-1-octenyl)-4-pyridyloxy]butanoic acid hydrochloride]	97.6
CCCCCC(O)/C=C/c1cc(OCCCC(=O)O)c(OC)cn1 (stereo not drawn) [Ex. 40, 4-[2-(3-Hydroxy-1-octenyl)-5-methoxy-4-pyridyloxy]butanoic acid hydrochloride]	97.5
CCCCCC(O)/C=C/c1cc(OC)c(OCCCCC(=O)O)cn1 (stereo not drawn) [Ex. 41, 5-[2-(3-Hydroxy-1-octenyl)-4-methoxy-5-pyridyloxy]pentanoic acid hydrochloride]	91
COC(=O)CCCCCOc1cc(/C=C/C(=O)c2ccccc2)ncc1OC [Ex. 42, methyl 6-[5-methoxy-2-(3-oxo-3-phenyl-1-propenyl)-4-pyridyloxy]hexanoate]	77.5
COc1cnc(/C=C/C(=O)c2ccccc2OC)cc1OC [Ex. 49]	65
COc1ccc(C(=O)/C=C/c2cc(OC)c(OC)cn2)cc1 [Ex. 50, 4,5-Dimethoxy-2-[3-(4-methoxyphenyl)-3-oxo-1-propenyl]pyridine]	79.4
CCOc1cnc(/C=C/C(=O)c2ccccc2)cc1O [Ex. 55, 5-Ethoxy-4-hydroxy-2-(^3-oxo-3-phenyl-1-propenyl]pyridine]	97.5
COc1ccc(OC)c(C(=O)/C=C/c2cc(O)c(OC)cn2)c1 [Ex. 57, 4-Hydroxy-5-methoxy-2-[3-(2,5-dimethoxyphenyl)-3-oxo-1-propenyl]pyridine]	82.5
COc1cnc(/C=C/C(=O)c2ccc(OC)c(OC)c2)cc1O [Ex. 58, 4-Hydroxy-5-methoxy-2-[3-(3,4-dimethoxyphenyl)-3-oxo-1-propenyl]pyridine hydrochloride]	91.3
COc1ccc(C(=O)/C=C/c2cc(O)c(OC)cn2)c(OC)c1 [Ex. 59, 4-Hydroxy-5-methoxy-2-[3-(2,4-dimethoxyphenyl)-3-oxo-1-propenyl]pyridine]	78.9
COc1cnc(/C=C/C(=O)c2ccccc2OC)cc1O [Ex. 60, 4-Hydroxy-5-methoxy-2-[3-(2-methoxyphenyl)-3-oxo-1-propenyl]pyridine]	91.4
COc1cnc(/C=C/C(=O)c2cc(OC)c(OC)c(OC)c2)cc1O [Ex. 61, 4-Hydroxy-5-methoxy-2-[3-oxo-3-(3,4,5-trimethoxyphenyl)-1-propenyl]pyridinehydrochloride]	79.4
COc1cnc(/C=C/C(=O)c2ccco2)cc1OC [Ex. 62, 4,5-Dimethoxy-2-[3-(2-furyl)-3-oxo-1-propenyl]pyridine]	72.3
COc1cnc(/C=C/C(=O)c2cccs2)cc1OC [Ex. 63, 4,5-Dimethoxy-2-[3-oxo-3-(2-thienyl)-1-propenyl]pyridine]	81

SMILES	inhibition at 1 µM [%]
COc1cnc(/C=C/C(=O)c2ccsc2)cc1OC [Ex. 64, 4,5-Dimethoxy-2-[3-oxo-3-(3-thienyl)-1-propenyl]pyridine]	82.1
COc1cnc(/C=C/C(=O)c2ccsc2)cc1O [Ex. 65, 4-Hydroxy-5-methoxy-2-[3-oxo-3-(3-thienyl)-1-propenyl]pyridine]	77.2
COc1cnc(/C=C/C(=O)c2ccccn2)cc1OC [Ex. 66, 4,5-dimethoxy-2-[3-oxo-3-(2-pyridyl)-1-propenyl]pyridine]	70.1
COc1cnc(/C=C/C(=O)c2cccnc2)cc1OC [Ex. 67, 4,5-Dimethoxy-2-[3-oxo-3-(3-pyridyl)-1-propenyl]pyridine]	77.9
COc1cnc(/C=C/C(=O)c2ccncc2)cc1OC [Ex. 68, 4,5-Dimethoxy-2-[3-oxo-3-(4-pyridyl)-1-propenyl]pyridine]	95.4
CCOC(=O)CCCCCOc1cc(/C=C/C(=O)c2ccccn2)ncc1OC [Ex. 69, Ethyl 6-[5-methoxy-2-(3-oxo-3-(2-pyridyl)-1-propenyl]-4-pyridyloxy]hexanoate]	73.1
COc1cnc(/C=C/C(=O)C2CCCCC2)cc1O [Ex. 75, 2-(3-Cyclohexyl-3-oxo-1-propenyl)-4-hydroxy-5-methoxypyridine hydrochloride]	90.6
CCOC(=O)CCCOc1cc(/C=C/C(=O)C2CCCC2)ncc1OC [Ex. 79, Ethyl 4-[2-(3-cyclopentyl-3-oxo-1-propenyl)-5-methoxy-4-pyridyloxy]butanoate hyd rochloride]	64.1
CCOC(=O)CCCOc1cc(/C=C/C(=O)C2CCC2)ncc1OC [Ex. 80, Ethyl 4-[2-(3-cyclobutyl-3-oxo-1-propenyl)-5-methoxy-4-pyridyloxy]butanoatehydrochloride]	69.2
CCOC(=O)COc1cnc(/C=C/C(=O)c2ccccc2)cc1OC [Ex. 81, Ethyl [4-methoxy-6-(3-oxo-3-phenyl-1-propenyl)-3-pyridyloxy]acetate]	72.7
CCOC(=O)CCCOc1cnc(/C=C/C(=O)c2ccccc2)cc1OC [Ex. 82, Ethyl 4-[4-methoxy-6-(3-oxo-3-phenyl-1-propenyl)-3-pyridyloxy]butanoate]	69.6
CCOC(=O)CCCCCOc1cnc(/C=C/C(=O)c2ccccc2)cc1OC [Ex. 83, Ethyl 6-[4-methoxy-6-(3-oxo-3-phenyl-1-propenyl)-3-pyridyloxy]hexanoate]	96.2
CCOC(=O)CCCOc1cc(/C=C/C(=O)c2ccccc2)ncc1OCC [Ex. 84, Ethyl 4-[5-ethoxy-2-(3-oxo-3-phenyl-1-propenyl)-4-pyridyloxy]butanoate hydrochloride]	89.4
CCOC(=O)CCCCOc1cc(/C=C/C(=O)c2cc(OC)ccc2OC)ncc1OC [Ex. 89, Ethyl 5-[5-methoxy-2-(3-(2,5-dimethoxyphenyl)-3-oxo-1-propenyl)-4-pyridyloxy]pentanoate]	82.1
CCOC(=O)CCCOc1cc(/C=C/C(=O)c2ccccc2OC)ncc1OC [Ex. 93, Ethyl 4-[5-methoxy-2-(3-(2-methoxyphenyl)-3-oxo-7-propenyl)-4-pyridyloxy]butanoate hydrochloride]	66
CCOC(=O)CCCCCOc1cc(/C=C/C(=O)c2cc(OC)c(OC)c(OC)c2)ncc1OC [Ex. 101, Ethyl 6-[5-methoxy-2-(3-oxo-3-(3,4,5-trimethoxyphenyl)-1-propenyl)-4-pyridyloxy]hexanoate hydrochloride]	95.6
COc1cnc(/C=C/C(=O)c2cc(OC)c(OC)c(OC)c2)cc1OCCCCCCO [Ex. 102, 6-[5-Methoxy-2-(3-oxo-3-(3,4,5-trimethoxyphenyl)-1-propenyl)-4-pyridyloxy]hexyl alcohol hydrochloride]	97.3
COc1cnc(/C=C/C(=O)c2ccccc2)cc1OCCCCCC(=O)O [Ex. 103, 6-[5-Methoxy-2-(3-oxo-3-phenyl-1-propenyl)-4-pyridyloxy]hexanoic acid]	72.4
CCOc1cnc(/C=C/C(=O)c2ccccc2)cc1OCCCC(=O)O [Ex. 104, 4-[5-Ethoxy-2-(3-oxo-3-phenyl-1-propenyl)-4-pyridyloxy]butanoic acid hydrochloride]	89.3
COc1cnc(/C=C/C(=O)N2CCCCC2)cc1OC [Ex. 107, 4,5-dimethoxy-2-(3-oxo-3-piperidino-1-propenyl)pyridine hydrochloride]	71.9
COc1cnc(/C=C/C(=O)N2CCCC2)cc1OC [Ex. 108, 4,5-Dimethoxy-2-(3-oxo-3-pyrrolidino-1-propenyl)pyridine hydrochloride]	78.5
COc1cnc(/C=C/C(=O)N2CCCCCC2)cc1OC [Ex. 109, 4,5-Dimethoxy-2-[3-(1-azepanyl)-3-oxo-1-propenyl]pyridine hydrochloride]	83.8
